According to US8835403B2, “Algin oligosaccharides and the derivatives thereof as well as the manufacture and the use of the same” (priority 2004, dated 2014):

How the values were obtained:
[1] = test system: diabetic mice induced by STZ; test: Blood glucose of diabetic mice induced by streptozotocin (STZ); assay type: in vivo; details: dimethyldiguanide 5 mg/kg for 10 days, blood on 11th day; STZ 150 mg/kg i.p.
Description: Sixty male NIH mice (weighed 18-22 g) are randomly divided to control, model, 50, 150, 450 mg/kg 6-mer-treated and 5 mg/kg dimethyldiguanide-treated groups. The mice are injected intraperitoneally with 150 mg/kg STZ except control group at the 1st day. Then the mice are given accordingly drugs consecutively for 10 days and eyeballs are picked out to extract blood on the 11th day. The blood is taken to measure the glucose concentration.

[2] = test system: AD mice induced by Aβ1-40; test: Morris water maze test of AD mice induced by Aβ1-40; assay type: in vivo
Description: (§1) Male Balb/c mice (18-22 g, purchased from Laboratory Centre of Shandong University) are weighed and randomly assigned to six groups as follows: a control group, a model group, a low-concentration (15 mg/kg) 6-mer-treated group, a middle-concentration (30 mg/kg) 6-mer-treated group, a high-concentration (60 mg/kg) 6-mer-treated group, and a Huperzine A-treated (HBY, with a concentration of 0.2 mg/kg) group. The mice were oral administered with corresponding drugs on day 3 after grouping. The drugs were administered once a day consecutively with a dosage of 0.5 ml/20 g until the experiment is completed. The mice of control and model groups were simultaneously administered with an equivalent amount of normal saline.
On the 8th day after drug administration, mice are injected with aged Aβ1-40 except the vehicle group as the method of reference (Jhoo J H et al., β-amyloid (1-42)-induced learning and memory deficits in mice: involvement of oxidative burdens in the hippocampus and cerebral cortex. Behavioural Brain Research (2004) 155: 185-196) to induce the AD model. Aged Aβ1-40 solution is injected into the right cerebral ventricle. […] However, on the 1st day of test, this increased escape latency is shortened in all drug-treated groups except the group treated with 15 mg/kg of 6-mer. And the escape latency of 60 mg/kg 6-mer-treated group has statistical significance compared with that of the model group (P<0.05). On the 2nd and 3rd day of test, the escape latency of all drug-treated groups are shortened, wherein that of 60 mg/kg 6-mer-treated group and HBY-treated group have statistical significance compared with that of the model group (P<0.05).
On the 4th day of Morris water maze test, the original plate is removed and the percentage of time of mice staying at the phase of original plate within 60 s is recorded.

[3] = test system: AD mice induced by Aβ1-40; test: Step-through passive avoidance task of AD mice induced by Aβ1-40; assay type: in vivo; details: HBY 0.2 mg/kg
Description: as §1
On the 25th day after Aβ injection, mice are further trained for step-through passive avoidance task. In the task, each mouse is placed in the illuminated compartment of the apparatus, facing away from the dark compartment, and the door is opened, allowing access to the dark compartment. Once the mouse enters the dark compartment, it receives an inescapable electric shock on the feet (36 V) through the stainless steel grid floor. The test is similarly performed after 24 h. The entry time of each mouse into the dark chamber (step-through latency, maximum testing limited to 3 min) and the number of entries into the dark compartment (number of errors) are recorded.
Each group has 8 animals. The data are presented as mean±SE. The symbol # means significant difference compared with the control group (P<0.05). * means significant difference compared with the model group (P<0.05). The step-through latency of Aβ1-40-treated group is shortened (P<0.01) and the error number is increased (P<0.05) compared with that of the control group, indicating the successful establishment of AD mice.

ChAT = test: Cerebral cortex ChAT activity of Aβ1-40-induced AD mice; assay type: in vivo; details: HBY 0.2 mg/kg
SOD = SOD activity of cerebral cortex and hippocampus of Aβ1-40-induced AD mice; assay type: in vivo; details: HBY 0.2 mg/kg
MDA = MDA content of cerebral cortex and hippocampus of Aβ1-40-induced AD mice; assay type: in vivo; details: HBY 0.2 mg/kg
GSH-PX = GSH-PX activity in cerebral cortex and hippocampus of Aβ1-40-induced AD mice; assay type: in vivo; details: HBY 0.2 mg/kg
Description: (§2) Following the behavioral test, rats are decapitated. Cerebral cortex and hippocampus are dissected on ice immediately, and stored at −80° C. after quick freezing in liquid nitrogen for 1 hour. MDA, SOD, GSH-PX, Na^+, K^+-ATPase, AchE and CHAT activities in the brain regions are determined using the respective kits. The homogenates of cerebral cortex and hippocampus are prepared with saline with a final concentration of 10% and 5%. The supernatant were obtained after centrifuging at 3600 rpm to test MDA, CuZn-SOD, GSH-PX, Na^+K^+-ATPase, AchE, and CHAT activities. The activity of ChAT is determined with isotope-labeled method. The other indexes and amount of total proteins are tested with the respective kits supplied by Nanjing Jiancheng Bioengineering Institute.
The GSH-PX activity in cerebral cortex and hippocampus is decreased after usage of Aβ with significant difference to the control group in hippocampus (p<0.05).

Na+, K+-ATPase = Na+, K+-ATPase activity in cerebral cortex and hippocampus of Aβ1-40-induced AD mice; assay type: in vivo; details: HBY 0.2 mg/kg
Description: as §2

Aβ1-40 fibril = Aβ1-40 fibril (Homo sapiens, UniProt P05067); test: Destability of preformed Aβ1-40 fibril (TEM); assay type: biochemical; details: Aβ1-40 aged 7 d, then heparin for additional 24 h (FIG. 10B)
Sequence of Aβ1-40 fibril (P05067 672-711 limits assumed): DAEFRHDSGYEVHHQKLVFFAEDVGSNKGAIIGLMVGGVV
Description: 1 mg/ml of distilled water-resolved Aβ1-40 is aged at 37° C. for 7d, after which it is exposed to 6-mer for 3 days.

Aβ1-40 = Aβ1-40 (Homo sapiens, UniProt P05067); test: Conformation of Aβ1-40 by CD spectra; assay type: biochemical; details: heparin (FIG. 11B)
Sequence of Aβ1-40 (P05067 672-711 limits assumed): as above
Description: CD spectra (J-[…], JASCO, Japan) of monomeric Aβ1-40 (250 μg/ml in TBS (100 mM Tris, 50 mM NaCl, pH7.4)) incubated at 37° C. for 12 h is mainly characterized by β-sheet secondary structure (FIG. 11A).

With `CN(C)C(=N)NC(=N)N` [Dimethyldiguanide, dimethyldiguanide, reference compound] the “Blood glucose concentration” value [1] was 201.6 ± 58.9 mg/dL.

`C/C=C1\[C@H]2C=C(C)C[C@]1(N)c1ccc(=O)[nH]c1C2` [HBY, Huperzine A, reference compound] was tested, and the “Escape latency (s) 1st day” value ([2]; HBY 0.2 mg/kg oral once a day, 1st day of test) was 76.29 ± 9.74 s, the “Escape latency (s) 2nd day” value ([2]; HBY 0.2 mg/kg oral once a day, 2nd day of test) was 64.58 ± 10.36 s and the “Escape latency (s) 3rd day” value ([2]; HBY 0.2 mg/kg oral once a day, 3rd day of test) was 63.83 ± 10.12 s. For the same compound, the “Latency bias(%)” value ([2]; probe trial, 4th day, within 60 s, HBY 0.2 mg/kg) was 22.18 ± 5.93%, the step-through latency ([3]; vs model group (FIG. 5)) was “significantly prolonged” and the number of errors ([3]; vs model group (FIG. 6)) was “significantly reduced”. The “ChAT activity (pmol/mg prot./min)” value (ChAT) was 100.70 ± 5.99 pmol/mg prot./min, the “SOD activity (NU/mg prot.) cerebral cortex” value (SOD; cerebral cortex) was 48.95 ± 2.13 NU/mg prot and the “SOD activity (NU/mg prot.) hippocampus” value (SOD; hippocampus) was 69.91 ± 6.51 NU/mg prot. For the same compound, the “MDA content (nmol/ml) cerebral cortex” value (MDA; cerebral cortex) was 1.61 ± 0.13 nmol/mL, the “MDA content (nmol/ml) hippocampus” value (MDA; hippocampus) was 2.26 ± 0.39 nmol/mL and the “GSH-PX (U/mg prot.) cerebral cortex” value (GSH-PX; cerebral cortex) was 8.85 ± 1.33 U/mg prot. For the same compound, the “GSH-PX (U/mg prot.) hippocampus” value (GSH-PX; hippocampus) was 5.29 ± 0.99 U/mg prot, the “ATPase activity (μmol Pi/mg prot./hour) cerebral cortex” value (Na+, K+-ATPase; cerebral cortex) was 0.91 ± 0.05 μmol Pi/mg prot./hour and the “ATPase activity (μmol Pi/mg prot./hour) hippocampus” value (Na+, K+-ATPase; hippocampus) was 2.35 ± 10.43 μmol Pi/mg prot./hour.

In the case of heparin [reference compound], the “effect on preformed Aβ1-40 fibers (TEM)” value (Aβ1-40 fibril) is reported as “become much denser and longer” and the “conformational transition of Aβ1-40 to β-sheet structure (CD)” value (Aβ1-40) is reported as “significantly accelerates the conformational transition to β-sheet structure”.
